One experiment deals with C. elegans. Kind of experiment: C. elegans motor phenotype scoring on solid media (Punc/jerky-unc, coiled, paralyzed), wild-type young adults. The following applies: for EC50: Caenorhabditis elegans, read-out: C. elegans - motor disruption EC50; for atypical locomotion (number of animals) / coiled (number of animals) / no phene (number of animals) / paralyzed (number of animals): young adults, 20 animals per trial. It is filed as in vivo, Caenorhabditis elegans.

Experiment [1] relates to Dirofilaria immitis microfilariae. Kind of experiment: Dirofilaria immitis microfilariae immobility assay (DiroImager, 72 h). The following applies: Dirofilaria immitis microfilariae. The procedure: We conducted experiments with the Missouri isolate of Dirofilaria immitis in two labs. In the first set of experiments, shown as part of Fig. 3c, D. immitis microfilariae and larval stage 3 (L3) worms were assayed in the laboratories of Bayer Animal Health GmbH (Monheim, Germany). For microfilariae immobility assays, approximately 250 freshly purified microfilariae were cultured in single wells of a 96-well microtiter plate containing supplemented RPMI 1640 medium[68],[69]. […] Microfilariae exposed to medium substituted with 1% DMSO were used as negative controls. Motility of microfilariae was evaluated after 72 h of drug exposure using an image-based approach—DiroImager, developed by Bayer Technology Services. As described in detail in refs. [68],[69], the DiroImager is an automated high-throughput platform that allows for high-resolution optical imaging of an entire 96-well microtiter plate.

In experiment [2] the test system is Dirofilaria immitis L3/L4. Kind of experiment: Dirofilaria immitis L3/L4 motility assay (DiroImager, 72 h). The following applies: Dirofilaria immitis L4.
The test system of the next experiment is Pristionchus pacificus. Put plainly: Pristionchus pacificus motor disruption dose-response on solid media, 1 h. The following applies: for mean % any phene (coiled, jerky-Unc or paralyzed): Pristionchus pacificus young adults, mean of three biological replicates; for EC50: Pristionchus pacificus, 1 h, read-out: P. pacificus motor disruption EC50.
Setting [3] is: 3.75uM, one hour, mean of three biological replicates, third c14 line of each analog.
Setting [4] is: 15uM, one hour, mean of three biological replicates, second c14 line of each analog.
Setting [5] is: 60uM, one hour, mean of three biological replicates, first c14 line of each analog.
[6] abbreviates: conc 3.75, observed at one hour.
Setting [7] is: conc 3.75, count of 20 animals per trial, one hour.
[8] abbreviates: 3.75uM, one hour, mean of three biological replicates.
[9] abbreviates: 3.75uM, one hour, single replicate counts.
Where [10] appears, read: 15uM, one hour, single replicate counts.
Setting [11] is: 60uM, one hour, single replicate counts.
Where [12] appears, read: any motor phenotype after 1 h on solid media, ± 95% CI.
The mark [13] stands for this setting: 3.75uM, one hour, single technical replicate.
Setting [14] is: 15uM, one hour, single technical replicate.
Where [15] appears, read: 60uM, one hour, single technical replicate.

Several values for one entry are separate records, joined by “and”; a condition that tells them apart may be missing. Identical values can stand only once. Like-named read-outs stand apart in the source and are kept apart here.

Procedure for Pristionchus pacificus: Locomotor phenotype analyses were done in 24-well plates with 1 mL of MYOB substrate (27.5 g Trizma HCl, 12 g Trizma Base, 230 g bacto tryptone, 10 g NaCl, 0.4 g cholesterol (95%)) seeded with 25 µL of OP50 Escherichia coli on each well. Each compound was added to the MYOB substrate before pouring to achieve the desired final concentrations of 30 µM or 60 µM after diffusion through the media. Synchronized young adult worms are transferred into each well using a platinum wire pick. A Leica MZ75 stereomicroscope was used to visualize the movement of worms on the solid substrate. The specific dominant locomotor phenotype (i.e. ‘Punc’, ‘paralyzed’, ‘coiler’ or ‘wild-type locomotion’) was scored after the touch on the head with a platinum wire over a ~3–5 s of observation. […] Coiled animals were not scored as paralyzed despite sometimes not responding to light touch.

By EC50 is commonly meant the midpoint of the concentration-response curve. With `O=C(C1CCC1)N1CCN(c2ccc(F)cc2)CC1` [Nemacol-18], the “any phene (mean % fraction of young adults exhibiting any phenotype: coiled, jerky-Unc or paralyzed)” value with C. elegans (setting [3]) was 0%; in the experiment on C. elegans (setting [4]), 10%; in the experiment with C. elegans (setting [5]) it was 27.5%. Further, the concentration giving a half-maximal response (EC50) in the experiment with C. elegans (1 h) and in the experiment with Pristionchus pacificus was more than 60 µM each time. The “% effect (motility), DIROIM MF” value in experiment [1] (0.016 µM), in experiment [1] (0.08 µM), in experiment [1] (0.4 µM), in experiment [1] (2 µM) and in experiment [1] (10 µM) was 0% each time. Besides, the “% effect (motility), DIROIM L4” value is given as 5% in experiment [2] (2 µM), 0% in experiment [2] (10 µM) and 10% in experiment [2] (50 µM). Further, the “mean % any phene (coiled, jerky-Unc or paralyzed)” value with Pristionchus pacificus (setting [6]) amounted to 3.333%; in the experiment with Pristionchus pacificus (conc 15, observed at one hour) it was 3.333%; in the experiment with Pristionchus pacificus (conc 60, observed at one hour) it was 15.8333%. The “rep 1 atypical locomotion” value in the experiment with Pristionchus pacificus (setting [7]) was determined as 0. Besides, the “rep 1 coiled” value in the experiment with Pristionchus pacificus (setting [7]) is reported as 0. In addition, the “rep 1 no phene” value with Pristionchus pacificus (setting [7]) is reported as 20. Moreover, the “rep 1 paralyzed” value in the experiment on Pristionchus pacificus (setting [7]) is 0. Also, the “rep 2 atypical locomotion” value with Pristionchus pacificus (setting [7]) was 0. For the same compound, the “rep 2 coiled” value in the experiment on Pristionchus pacificus (setting [7]) was determined as 0. Further, in the experiment on Pristionchus pacificus (setting [7]), the “rep 2 no phene” value stood at 20. The “rep 2 paralyzed” value in the experiment on Pristionchus pacificus (setting [7]) was found to be 0. Moreover, the “rep 3 atypical locomotion” value in the experiment on Pristionchus pacificus (setting [7]) is 0. Further, the “rep 3 coiled” value in the experiment on Pristionchus pacificus (setting [7]) turned out to be 0. Moreover, in the experiment with Pristionchus pacificus (setting [7]), the “rep 3 no phene” value turned out to be 19. In the experiment with Pristionchus pacificus (setting [7]), the “rep 3 paralyzed” value came out at 1.
Take `O=[N+]([O-])c1ccc(N2CCN(c3ccccc3O)CC2)cc1` [Nemacol-13]: the “any phene, mean % fraction of young adults exhibiting any phenotype (coiled, jerky-Unc or paralyzed)” value in the experiment with C. elegans (setting [8]) turned out to be 0.8333%; with C. elegans (15uM, one hour, mean of three biological replicates) it was 2.5%; in the experiment with C. elegans (60uM, one hour, mean of three biological replicates) it was 20%. For the same compound, the “atypical locomotion (number of animals)” value with C. elegans (setting [9]) is 0 and 1; with C. elegans (setting [10]), 0 and 2 and 1; in the experiment on C. elegans (setting [11]) it was 0 and 11 and 13. In addition, the “coiled (number of animals)” value in the experiment with C. elegans (setting [9]), in the experiment on C. elegans (setting [10]) and in the experiment on C. elegans (setting [11]) was 0 each time. In addition, the “no phene (number of animals)” value was 20 and 19 in the experiment on C. elegans (setting [9]); 20 and 18 and 19 in the experiment on C. elegans (setting [10]); 20 and 9 and 7 in the experiment with C. elegans (setting [11]). In addition, the “paralyzed (number of animals)” value in the experiment with C. elegans (setting [9]), with C. elegans (setting [10]) and in the experiment on C. elegans (setting [11]) was 0 throughout. For the same compound, the concentration giving a half-maximal response (EC50) in the experiment on C. elegans (setting [12]) and in the experiment with Pristionchus pacificus was more than 60 µM each time. For the same compound, the “% effect (motility), DIROIM MF” value in experiment [1] (0.016 µM), in experiment [1] (0.08 µM), in experiment [1] (0.4 µM), in experiment [1] (2 µM) and in experiment [1] (10 µM) was 0% throughout. The “% effect (motility), DIROIM L4” value in experiment [2] (2 µM), in experiment [2] (10 µM) and in experiment [2] (50 µM) was 0% throughout. Besides, the “mean % any phene (coiled, jerky-Unc or paralyzed)” value in the experiment with Pristionchus pacificus (setting [6]) was determined as 0%; in the experiment on Pristionchus pacificus (conc 15, observed at one hour) it was 0%; in the experiment on Pristionchus pacificus (conc 60, observed at one hour), 9.167%.
Regarding `O=[N+]([O-])c1ccc(N2CCN(CC3CC3)CC2)cc1` [Nemacol-28, 1-(cyclopropylmethyl)−4-(4-nitrophenyl)piperazine], the “any phene (mean % fraction of young adults exhibiting any phenotype: coiled, jerky-Unc or paralyzed)” value in the experiment with C. elegans (setting [3]) is recorded as 0%; with C. elegans (setting [4]), 4.167%; in the experiment on C. elegans (setting [5]), 32.5%. For the same compound, the concentration for a half-maximal effect (EC50) with C. elegans (setting [12]) is more than 60 µM. Also, the “% effect (motility), DIROIM MF” value in experiment [1] (0.016 µM), in experiment [1] (0.08 µM), in experiment [1] (0.4 µM), in experiment [1] (2 µM) and in experiment [1] (10 µM) was 0% each time. Also, the results for the “% effect (motility), DIROIM L4” value in experiment [2] (2 µM), in experiment [2] (10 µM) and in experiment [2] (50 µM) were 5%, 5% and 15%, respectively.
For the compound `N#Cc1ccc(N2CCN(CC3CCCCC3)CC2)cc1` [Nemacol-24, 4-(4-(cyclohexylmethyl)piperazin-1-yl)benzonitrile], the “any phene (mean % fraction of young adults exhibiting any phenotype: coiled, jerky-Unc or paralyzed)” value was determined as 8.333% with C. elegans (setting [3]), 45.8333% in the experiment with C. elegans (setting [4]) and 91.6667% in the experiment on C. elegans (setting [5]). Further, in the experiment with C. elegans (setting [12]), the concentration giving a half-maximal response (EC50) was 16.3 ± 10.5 µM. Besides, the “% effect (motility), DIROIM MF” value in experiment [1] (0.016 µM), in experiment [1] (0.08 µM), in experiment [1] (0.4 µM), in experiment [1] (2 µM) and in experiment [1] (10 µM) was 0% in each case. Besides, the “% effect (motility), DIROIM L4” value is 25% in experiment [2] (10 µM) and 45% in experiment [2] (50 µM).
In the case of `Clc1ccc(N2CCN(C3CCCCCC3)CC2)cc1` [Nemacol-57], the “atypical locomotion (number of animals)” value in the experiment on C. elegans (setting [13]) was 12 and 13 and 15; in the experiment on C. elegans (setting [14]), 0 and 2 and 4 and 6; with C. elegans (setting [15]) it was 0 and 2 and 1. Further, the “coiled (number of animals)” value in the experiment with C. elegans (setting [13]) is 3 and 1 and 2 and 7; in the experiment on C. elegans (setting [14]), 17 and 15 and 14 and 10 and 11; in the experiment with C. elegans (setting [15]) it was 14 and 13 and 12 and 18 and 11. The “no phene (number of animals)” value in the experiment on C. elegans (setting [13]) is 0 and 2 and 3; with C. elegans (setting [14]) it was 0; in the experiment on C. elegans (setting [15]), 0. The “paralyzed (number of animals)” value in the experiment with C. elegans (setting [13]) is 5 and 4 and 1 and 0; in the experiment with C. elegans (setting [14]), 3 and 4 and 0 and 6; in the experiment with C. elegans (setting [15]) it was 6 and 5 and 7 and 2 and 8. In addition, the “any phene: mean % fraction of young adults exhibiting any phenotype (coiled, jerky-Unc or paralyzed)” value in the experiment on C. elegans (setting [8]) is on record as 92.5%. The EC50 in the experiment with C. elegans (setting [12]) turned out to be 2.3 µM. Besides, the “% effect (motility), DIROIM MF” value in experiment [1] (0.016 µM), in experiment [1] (0.08 µM), in experiment [1] (0.4 µM), in experiment [1] (2 µM) and in experiment [1] (10 µM) was 0% in each case. For the same compound, the “% effect (motility), DIROIM L4” value is listed as 10% in experiment [2] (10 µM) and 15% in experiment [2] (50 µM).
Regarding `c1cc(N2CCN(CC3CCCCC3)CC2)ccn1` [Nemacol-22, 1-(cyclohexylmethyl)−4-(pyridin-4-yl)piperazine], the “any phene (mean % fraction of young adults exhibiting any phenotype: coiled, jerky-Unc or paralyzed)” value in the experiment on C. elegans (setting [3]) is listed as 0%; with C. elegans (setting [4]), 10.8333%; in the experiment with C. elegans (setting [5]), 24.1667%. In addition, the EC50 in the experiment on C. elegans (setting [12]) was more than 60 µM. The “% effect (motility), DIROIM MF” value in experiment [1] (0.016 µM), in experiment [1] (0.08 µM), in experiment [1] (0.4 µM), in experiment [1] (2 µM) and in experiment [1] (10 µM) was 0% each time. The entries for the “% effect (motility), DIROIM L4” value in experiment [2] (2 µM), in experiment [2] (10 µM) and in experiment [2] (50 µM) were 0%, 0% and 10%, respectively.

For the origin of these results see article PMC10066365, “Nemacol is a small molecule inhibitor of C. elegans vesicular acetylcholine transporter with anthelmintic potential” (Nature Communications, 2023).
